These results are taken from PMC4841536, “Characterization of the Anti-HCV Activities of the New Cyclophilin Inhibitor STG-175” (PLoS ONE, 2016).

Read-outs that look alike come from different tables or passages of the source. Some results are limits rather than exact numbers.

Data set [1] can be described thus: alamarBlue cytotoxicity (CC50), GT3a replicon cell line. The note with it: human. As for the experimental part: The anti-HCV activity of STG-175 was conducted using a panel of luciferase reporter replicon cell lines including GT1a, GT1b, GT2a, GT3a and GT4a as we described previously. The GT1a subgenomic renilla luciferase reporter replicon H77 RLucP (7) was supplied by Dr. Delaney. The GT1b subgenomic firefly luciferase reporter replicon pFK-I389/NS3-3’ [29] was supplied by Dr. Bartenschlager. The GT1B subgenomic NS3, NS5A and NS5B mutants were created via homologous recombination using the In-Fusion HD Cloning kit (Clontech) as we described previously. The GT2a genomic luciferase reporter replicon Luc-Neo-JFH-1 was generated as previously. The plasmid pFK-Luc-JFH1 was supplied from Drs. […] The CellTiter-Fluor™ Cell Viability Assay is a non-lytic fluorescence assay, which measures the number of live cells. […] Luciferase activity was determined using the Luciferase Assay System (Promega) in a Berthold luminometer. […] Viable cells continuously convert resazurin to resorufin, increasing the overall fluorescence and color of the media surrounding cells.
Fig 2 Anti-HCV activities of STG-175 among GTs. […] Luciferase activity was determined using the Luciferase Assay System in a Berthold luminometer. […] Data are expressed as mean of relative light units and calculated EC50s are presented. […]
In general terms: Alamar Blue is a resazurin reagent that responds to reducing activity.

Data set [2] relates to wild-type Con1 GT1b replicon. Description: Electroporated Con1 RNA replication in Huh7.5.1 cells (RT-qPCR), wild-type. The class given is cell-based. The note with it: Hepatitis C virus. An excerpt:
The GT1b subgenomic firefly luciferase reporter replicon pFK-I389/NS3–3 was provided by R. Bartenschlager. The GT1B subgenomic NS3, NS5A and NS5B mutants were created via homologous recombination using the In-Fusion HD Cloning kit (Clontech) as we described previously. […] The in vitro transcription of wild-type and mutant Con1 RNA was accomplished using the T7 MEGAscript kit (Ambion) by following the manufacturer’s instructions. In vitro-transcribed RNAs were introduced into Huh7.5.1 cells by electroporation. Trypsinized cells were washed twice and resuspended in phosphate-buffered saline (PBS) (calcium-free and magnesium-free) at 1x 10^7 cells per ml. Ten micrograms of RNA for each mutant was mixed with 0.4 mL of cells in a 4-mm cuvette, and a Bio-Rad Gene Pulser system was used to deliver a single pulse at 0.27 kV, 100 ohms, and 960 μF. Cells were then plated in 12-well dishes. RNA transfection efficiency and HCV subgenomic replication were assessed by reverse transcription-quantitative PCR (RT-qPCR) and presented as genome equivalents (GE) per microgram of total RNA as described previously. We measured by RT-qPCR the replication of wild-type, STG-175-, NS5Ai-, NS3i- and NS5Bi-resistant mutants in the presence of increasing concentrations of SGT-175, daclatasvir, telaprevir, boceprevir and sofosbuvir over a period of 8 days.
Fig 3 Replicon clearance, replication rebound and resistance analyses. […] Then drugs were removed to allow viral replication rebound to occur. At each passage, samples of cells were collected, RNA extracted and analyzed by RT-PCR for HCV RNA levels. B. Emergence of resistance: Con1 replicon Huh-7 cells were passaged 22 times in the absence or presence of STG-175 or selected DAAs. At each passage, sample of cells were collected, RNA extracted and analyzed by RT-PCR for HCV RNA levels. C. […] Data are expressed as number of HCV RNA copies per cell. […] Data are expressed as mean of relative light units and calculated EC50s are presented. […] E. Degree of resistance of D320E and Y321N Con1 variants: Left panel. Wild-type (WT), D320E and D320/Y321N NS5A Con1 RNA were electroporated into Huh7.5.1 cells and replication monitored over 8 days by quantifying the levels of intracellular HCV RNA. Right panel. Same as just above except that increasing concentrations of STG-175 were added at the time of the electroporation. […] STG-175 is taken as the substance from the printed x-axis title 'STG-175 in Log nM'.
To determine whether the D320E and Y321N substitutions truly render HCV resistant to STG-175, they were introduced into wild-type Con1 replicon as we described previously. Introduction of the substitutions was verified by sequencing. In vitro-transcribed wild-type, D320E and D320E/Y321N HCV RNAs were then electroporated into Huh7.5.1 cells and viral replication assessed by RT-qPCR and presented as GE per microgram of total RNA as we described previously. […] We then analyzed the replication of wild-type, D320E and D320E/Y321N in the presence of increasing concentrations of SGT-175 over a period of 8 days.
Fig 5 Cross-resistance analyses.
(In qPCR the cycle at which signal appears reflects the starting amount.)

In data set [3] the test system is HIV-1 in mixed PBMCs, NTCP-Huh7 and Huh7.5.1 cells. As to the kind of experiment: Dual/triple co-infection in cell co-cultures, HIV-1 readout. The class given is cell-based.
Data set [4] deals with HCV GT1a, GT1b, GT2a, GT3a and GT4a replicons. Description: Panel of HCV replicon cell lines GT1a to 4a (summary statements). The class given is cell-based. The note with it: Hepatitis C virus, read-out: EC50 range among HCV GTs (GT1a to 4a), multi-genotypic anti-HCV activity. Background: A replicon is a self-replicating genome or part of one, used to study replication in cells.

Usually CC50 stands for the concentration that lowers cell viability or growth by half. In general, EC50 refers to the midpoint of the concentration-response curve. On to `CC=CCC(C)C(O)C1C(=O)NC(CC)C(=O)N(C)C(CSCCCCO)C(=O)N(C)C(CC(C)(C)O)C(=O)NC(C(C)C)C(=O)N(C)C(CC(C)C)C(=O)NC(C)C(=O)NC(C)C(=O)N(C)C(CC(C)C)C(=O)N(C)C(CC(C)C)C(=O)N(C)C(C(C)C)C(=O)N1C` (stereo not shown) [STG-175], for which the CC50 at 72 h in data set [1] was above 10000 nM. Also, the EC50 in data set [2] (Huh-7.5.1, 144 h, read-out: EC50, WT replicon) is 35.7 nM; in data set [2] (Huh-7.5.1, 192 h, read-out: EC50, WT replicon), 34.4 nM; in data set [2] (Huh-7.5.1, 192 h, read-out: EC50 GT1b WT), 10.6 nM; in data set [4], 11.5 to 38.9 nM. Also, the “HIV-1 infection in co-infection” value in data set [3] (STG-175 added together with virus) is recorded as “totally blocked”. In addition, the “established HIV-1 infection in co-infection” value in data set [3] (added 3 days post-infection and then every 3 days) is “almost totally aborted”.
